The source of these data is patent US20020169101A1, “Treatment of sexual dysfunction” (priority 1999, published 2002).

Read-outs that look alike come from different tables or passages of the source.

Data set [1] concerns the target T1, human NMB receptor (BB1) (Homo sapiens, UniProt P28336).
T1 construct: expressed in transfected cells; membranes prepared from the cells
In words: BB1 binding assay ([125I][Tyr4]bombesin displacement, CHO-K1 membranes). As to conditions: for Ki: Table 1, human NMB receptor binding affinity, Ki from IC50 by Cheng-Prusoff, read-out: NMB Ki. The method, boiled down: (§1)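 Membranes from CHO-K1 cells stably expressing human NMB (BB1) or GRP (BB2) receptors, in 50 mM Tris-HCl pH 7.4 with BSA and protease inhibitors, incubated with [125I][Tyr4]bombesin (<0.1 nM) for 60 min (BB1) or 90 min (BB2). Nonspecific binding defined with 1 μM bombesin; filtration and gamma counting; IC50 converted to Ki by Cheng-Prusoff.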

In data set [2] the target is T2, human GRP receptor (BB2) (Homo sapiens, UniProt P30550).
T2 construct: expressed in transfected cells; membranes prepared from the cells
T2 sequence (P30550 whole entry): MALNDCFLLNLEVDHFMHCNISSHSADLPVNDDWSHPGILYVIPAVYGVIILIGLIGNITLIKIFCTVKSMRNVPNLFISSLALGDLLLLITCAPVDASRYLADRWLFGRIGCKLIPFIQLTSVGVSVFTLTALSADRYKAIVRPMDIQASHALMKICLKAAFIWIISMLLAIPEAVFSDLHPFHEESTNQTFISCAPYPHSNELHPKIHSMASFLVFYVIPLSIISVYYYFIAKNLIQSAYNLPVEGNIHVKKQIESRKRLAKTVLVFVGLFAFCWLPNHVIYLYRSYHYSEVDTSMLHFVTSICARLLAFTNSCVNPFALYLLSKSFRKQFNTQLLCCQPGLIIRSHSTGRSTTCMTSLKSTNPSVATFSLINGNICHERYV
In words: BB2 binding assay ([125I][Tyr4]bombesin displacement, CHO-K1 membranes). The method, boiled down: as §1

Setting [3] is: Table 3, N-acyl derivatives of Intermediate III-7.
[4] abbreviates: second 'TABLE 4', N-terminal urethane derivatives of Intermediate III-7.

T1 sequence (P28336 whole entry): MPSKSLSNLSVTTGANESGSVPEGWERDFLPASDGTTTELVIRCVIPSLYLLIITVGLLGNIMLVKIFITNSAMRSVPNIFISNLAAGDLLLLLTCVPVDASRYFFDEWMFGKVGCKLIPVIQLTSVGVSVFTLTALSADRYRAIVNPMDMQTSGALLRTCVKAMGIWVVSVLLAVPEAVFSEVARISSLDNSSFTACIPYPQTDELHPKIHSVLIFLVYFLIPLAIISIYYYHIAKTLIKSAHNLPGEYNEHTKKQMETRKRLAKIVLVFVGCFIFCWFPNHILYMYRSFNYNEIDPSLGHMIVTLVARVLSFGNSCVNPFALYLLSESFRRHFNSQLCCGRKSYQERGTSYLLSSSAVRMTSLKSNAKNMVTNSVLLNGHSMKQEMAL

In turn, `C[C@@](Cc1c[nH]c2ccccc12)(Nc1nc2ccccc2o1)C(=O)NCC1(c2ccccn2)CCCCC1` [Example 17, (S)-2-(Benzooxazol-2-ylamino)-3-(1H-indol-3-yl)-2-methyl-N-(1-pyridin-2-yl-cyclohexylmethyl)-propionamide] displayed a melting point of 198 to 200 °C. Also, the Ki in data set [1] was determined as 2.08 µM.
The corresponding values for `C[C@@](Cc1c[nH]c2ccccc12)(NCc1ccc([N+](=O)[O-])cc1)C(=O)NCC1(c2ccccn2)CCCCC1` [Example 27, (S)-3-(1H-Indol-3-yl)-2-methyl-2-(4-nitro-benzylamino)-N-(1-pyridin-2-yl-cyclohexylmethyl)-propionamide] are 58 to 60 °C and 0.652 µM.
Regarding `C[C@@](Cc1c[nH]c2ccccc12)(NS(=O)(=O)c1cccc(F)c1)C(=O)NCC1(c2ccccn2)CCCCC1` [Example 126], the results for the IC50 in data set [1] and in data set [2] were 0.407 µM and 2.76 µM, respectively.
Regarding `C[C@@](Cc1c[nH]c2ccccc12)(NC(=O)c1ccc(S(C)(=O)=O)cc1)C(=O)NCC1(c2ccccn2)CCCCC1` [Example 37, N—{(S)-2-(1H-Indol-3-yl)-1-methyl-1-[(1-pyridin-2-yl-cyclohexylmethyl)-carbamoyl]-ethyl}-4-methanesulfonyl-benzamide], the IC50 in data set [1] (setting [3]) was 2.27 µM; in data set [2] (setting [3]), more than 10 µM.
With `C[C@@](Cc1c[nH]c2ccccc12)(NS(=O)(=O)Cc1ccccc1)C(=O)NCC1(c2ccccn2)CCCCC1` [Example 111, (S)-3-(1H-indol-3-yl)-2-methyl-2-phenylmethanesulfonylamino-N-(1-pyridin-2-yl-cyclohexylmethyl)-propionamide], the values for the IC50 in data set [1] and in data set [2] were 0.186 µM and more than 10 µM, respectively.
With `Cn1c(C(=O)N[C@@](C)(Cc2c[nH]c3ccccc23)C(=O)NCC2(c3ccccn3)CCCCC2)cc2ccccc21` [Example 70, 1-Methyl-1H-indole-2-carboxylic acid {(S)-2-(1H-indol-3-yl)-1-methyl-1-[(1-pyridin-2-yl-cyclohexylmethyl)-carbamoyl]-ethyl}-amide], the results for the half-maximal inhibitory concentration (IC50) in data set [1] (setting [3]) and in data set [2] (setting [3]) were 1.23 µM and more than 10 µM, respectively.
The corresponding values for `C[C@@](Cc1c[nH]c2ccccc12)(NC(=O)c1cccc(Cl)c1)C(=O)NCC1(c2ccccn2)CCCCC1` [Example 39, 3-Chloro-N—{(S)-2-(1H-indol-3-yl)-1-methyl-1-[(1-pyridin-2-yl-cyclohexyl-methyl)-carbamoyl]-ethyl}-benzamide] are 1.27 µM and more than 10 µM.
As for `COc1cccc(S(=O)(=O)N[C@@](C)(Cc2c[nH]c3ccccc23)C(=O)NCC2(c3ccccn3)CCCCC2)c1` [Example 145], the figures for the IC50 in data set [1] and in data set [2] were 0.295 µM and 3.69 µM, respectively.
Regarding `COc1ccc(COC(=O)N[C@@](C)(Cc2c[nH]c3ccccc23)C(=O)NCC2(c3ccccn3)CCCCC2)cc1` [Example 92, {(S)-2-(1H-Indol-3-yl)-1-methyl-1-[(1-pyridin-2-yl-cyclohexylmethyl)-carbamoyl]-ethyl}-carbamic acid 4-methoxy-benzyl ester], the IC50 in data set [1] (setting [4]) is 1.61 µM; in data set [2] (setting [4]), more than 10 µM.
As to `C[C@@](Cc1c[nH]c2ccccc12)(NC(=O)Cc1ccccc1[N+](=O)[O-])C(=O)NCC1(c2ccccn2)CCCCC1` [Example 84, (S)-3-(1H-Indol-3-yl)-2-methyl-2-[2-(2-nitro-phenyl)-ethanoylamino]-N-(1-pyridin-2-yl-cyclohexylmethyl)-propionamide], the IC50 is 1.98 µM in data set [1] (setting [3]) and more than 10 µM in data set [2] (setting [3]).
Consider `C[C@@](Cc1c[nH]c2ccccc12)(NC(=O)OCc1ccccc1Cl)C(=O)NCC1(c2ccccn2)CCCCC1` [Example 95, {(S)-2-(1H-Indol-3-yl)-1-methyl-1-[(1-pyridin-2-yl-cyclohexylmethyl)-carbamoyl]-ethyl}-carbamic acid 2-chloro-benzyl ester], for which the figures for the IC50 in data set [1] (setting [4]) and in data set [2] (setting [4]) were 0.624 µM and more than 10 µM, respectively.
As to `C[C@@](Cc1c[nH]c2ccccc12)(NC(=O)OCc1cccc(Cl)c1Cl)C(=O)NCC1(c2ccccn2)CCCCC1` [Example 109, {(S)-2-(1H-Indol-3-yl)-1-methyl-1-[(1-pyridin-2-yl-cyclohexylmethyl)-carbamoyl]-ethyl}-carbamic acid 2,3-dichloro-benzyl ester], the IC50 in data set [1] (setting [4]) was 0.152 µM; in data set [2] (setting [4]) it was more than 10 µM.
The corresponding values for `C[C@@](Cc1c[nH]c2ccccc12)(NC(=O)OCc1cccc(C(F)(F)F)c1)C(=O)NCC1(c2ccccn2)CCCCC1` [Example 107, {(S)-2-(1H-Indol-3-yl)-1-methyl-1-[(1-pyridin-2-yl-cyclohexylmethyl)-carbamoyl]-ethyl}-carbamic acid 3-trifluoromethyl-benzyl ester] are 0.182 µM and more than 10 µM.
The like results for `Cc1ccc(COC(=O)N[C@@](C)(Cc2c[nH]c3ccccc23)C(=O)NCC2(c3ccccn3)CCCCC2)cc1` [Example 108, {(S)-2-(1H-Indol-3-yl)-1-methyl-1-[(1-pyridin-2-yl-cyclohexylmethyl)-carbamoyl]-ethyl}-carbamic acid 4-methyl-benzyl ester] were, in that order, 1.08 µM and more than 10 µM.
The like results for `C[C@@](Cc1c[nH]c2ccccc12)(NC(=O)OCc1cccc(Oc2ccccc2)c1)C(=O)NCC1(c2ccccn2)CCCCC1` [Example 106, {(S)-2-(1H-Indol-3-yl)-1-methyl-1-[(1-pyridin-2-yl-cyclohexylmethyl)-carbamoyl]-ethyl}-carbamic acid 3-phenoxy-benzyl ester] were, in that order, 1.35 µM and more than 10 µM.
Regarding `C[C@@](Cc1c[nH]c2ccccc12)(NC(=O)c1cccc(C#N)c1)C(=O)NCC1(c2ccccn2)CCCCC1` [Example 38, 3-Cyano-N—{(S)-2-(1H-indol-3-yl)-1-methyl-1-[(1-pyridin-2-yl-cyclohexylmethyl)-carbamoyl]-ethyl}-benzamide], the IC50 in data set [1] (setting [3]) was 2.04 µM; in data set [2] (setting [3]), more than 10 µM.
On to `C[C@@](Cc1c[nH]c2ccccc12)(NCCc1ccccc1)C(=O)NCC1(c2ccccn2)CCCCC1` [Example 25, (S)-3-(1H-Indol-3-yl)-2-methyl-2-phenylethylamino-N-(1-pyridin-2-yl-cyclohexylmethyl)-propionamide], for which the Ki came to 0.616 µM in data set [1] and 2.62 µM in data set [2] (Table 1, human GRP receptor binding affinity, Ki from IC50 by Cheng-Prusoff, read-out: GRP Kj).
In the case of `COc1ccccc1C(=O)N[C@@](C)(Cc1c[nH]c2ccccc12)C(=O)NCC1(c2ccccn2)CCCCC1` [Example 46, N—{(S)-2-(1H-Indol-3-yl)-1-methyl-1-[(1-pyridin-2-yl-cyclohexylmethyl)-carbamoyl]-ethyl}-2-methoxy-benzamide], the IC50 in data set [1] (setting [3]) is 2.56 µM; in data set [2] (setting [3]) it was more than 10 µM.
Take `C[C@@](Cc1c[nH]c2ccccc12)(NC(=O)OCc1ccc(Cl)c(Cl)c1)C(=O)NCC1(c2ccccn2)CCCCC1` [Example 91, {(S)-2-(1H-Indol-3-yl)-1-methyl-1-[(1-pyridin-2-yl-cyclohexylmethyl)-carbamoyl]-ethyl}-carbamic acid 3,4-dichloro-benzyl ester]: the values for the half-inhibitory concentration (IC50) in data set [1] (setting [4]) and in data set [2] (setting [4]) were 0.202 µM and more than 10 µM, respectively.
Turning to `Cc1ccc(C(=O)N[C@@](C)(Cc2c[nH]c3ccccc23)C(=O)NCC2(c3ccccn3)CCCCC2)s1` [Example 75, 5-Methyl-thiophene-2-carboxylic acid {(S)-2-(1H-indol-3-yl)-1-methyl-1-[(1-pyridin-2-yl-cyclohexylmethyl)-carbamoyl]-ethyl}-amide], the figures for the IC50 in data set [1] (setting [3]) and in data set [2] (setting [3]) were 1.66 µM and more than 10 µM, respectively.
The like results for `C[C@@](Cc1c[nH]c2ccccc12)(NC(=O)c1ccccc1Cl)C(=O)NCC1(c2ccccn2)CCCCC1` [Example 44, 2-Chloro-N—{(S)-2-(1H-indol-3-yl)-1-methyl-1-[(1-pyridin-2-yl-cyclohexyl-methyl)-carbamoyl]-ethyl}-benzamide] were, in that order, 3.23 µM and more than 10 µM.
For `Cc1ccc(S(=O)(=O)N[C@@](C)(Cc2c[nH]c3ccccc23)C(=O)NCC2(c3ccccn3)CCCCC2)cc1Cl` [Example 158], the IC50 in data set [1] came to 0.299 µM; in data set [2], 3.94 µM.
`C[C@@](Cc1c[nH]c2ccccc12)(NC(=O)c1cccc(S(C)(=O)=O)c1)C(=O)NCC1(c2ccccn2)CCCCC1` [Example 41, N—{(S)-2-(1H-Indol-3-yl)-1-methyl-1-[(1-pyridin-2-yl-cyclohexylmethyl)-carbamoyl]-ethyl}-3-methanesulfonyl-benzamide]: the half-maximal inhibitory concentration (IC50) in data set [1] (setting [3]) is 3.05 µM; in data set [2] (setting [3]), more than 10 µM.
The corresponding values for `C[C@@](Cc1c[nH]c2ccccc12)(NC(=O)c1ccccc1-n1cccc1)C(=O)NCC1(c2ccccn2)CCCCC1` [Example 81, N—{(S)-2-(1H-Indol-3-yl)-1-methyl-1-[(1-pyridin-2-yl-cyclohexylmethyl)-carbamoyl]-ethyl}-2-pyrrol-1-yl-benzamide] are 0.361 µM and more than 10 µM.
`C[C@@](Cc1c[nH]c2ccccc12)(NC(=O)c1ccc2cc[nH]c2c1)C(=O)NCC1(c2ccccn2)CCCCC1` [Example 66, 1H-Indole-6-carboxylic acid {(S)-2-(1H-indol-3-yl)-1-methyl-1-[(1-pyridin-2-yl-cyclohexylmethyl)-carbamoyl]-ethyl}-amide]: the IC50 in data set [1] (setting [3]) is 1.6 µM; in data set [2] (setting [3]) it was more than 10 µM.
With `Cc1ccc(CC(=O)N[C@@](C)(Cc2c[nH]c3ccccc23)C(=O)NCC2(c3ccccn3)CCCCC2)cc1` [Example 50, (S)-3-(1H-Indol-3-yl)-2-methyl-N-(1-pyridin-2-yl-cyclohexylmethyl)-2-(2-p-tolyl-ethanoylamino)-propionamide], the IC50 in data set [1] (setting [3]) is 0.944 µM; in data set [2] (setting [3]), more than 10 µM.

The term melting point denotes the temperature of the solid-liquid transition. The IC50 is the point on the concentration scale where inhibition reaches its midpoint.
